Source: patent US20250154531A1, “METHODS FOR IMPROVED HOMOLOGOUS RECOMBINATION AND COMPOSITIONS THEREOF” (LIFE TECHNOLOGIES CORPORATION, priority 2017, published 2025)

Columns and labels:
β-actin in Jurkat = assay: One-step knock-in of OFP with NHEJ inhibitor in Jurkat cells; assay type: cell-based; conditions: in media for two days after transfection
Procedure: (§1) Various cell types (NK-92, THP-1, Jurkat) were transfected with 1 μg TRUECUT™ Cas9 Protein v2 and 250 ng of β-actin gRNA, and 0.25 μg, 0.5 μg, or 1 μg OFP-Puro in electroporation buffer. Electroporation was performed using the NEON® Transfection System. After electroporation, the cells were cultured in media containing NHEJ inhibitor (Ku0060648) for two days, then analyzed via FACS analysis for SSC-A and OFP.

β-actin = assay: One-step knock-in with two Cas9/gRNA complexes in primary T cells, knock-in efficiency; assay type: cell-based, human; conditions: in media for two days after electroporation
Procedure: (§2) Human primary T cells were isolated and activated as in Example 10. On the third day after activation, cells were transfected with 1 μg TRUECUT™ Cas9 Protein v2 with 250 ng of β-actin gRNA, 1 μg TRUECUT™ Cas9 Protein v2 with 250 ng of a guide RNA targeting the T cell receptor (TRAC gRNA), and 1 μg OFP-Puro in electroporation buffer. Electroporation was performed using the NEON® Transfection System, program 24. After electroporation, the cells were cultured in media containing NHEJ inhibitor (Ku0060648) for two days, then analyzed via FACS analysis for SSC-A and OFP.

β-actin in THP-1 = assay: One-step knock-in of OFP with NHEJ inhibitor in THP-1 cells; assay type: cell-based; conditions: THP-1, in media for two days after transfection
Procedure: as §1

[1] = tested on: T cell receptor (TRAC gRNA); assay: One-step knock-in with two Cas9/gRNA complexes in primary T cells, knock-out efficiency; assay type: cell-based, human; conditions: in media for two days after electroporation
Procedure: as §2

β-actin in NK-92 = assay: One-step knock-in of OFP with NHEJ inhibitor in NK-92 cells; assay type: cell-based; conditions: NK-92, in media for two days after transfection
Procedure: as §1

[2] = tested on: genomic locus of beta-actin; assay: Insertion of puromycin-P2A-OFP into beta-actin locus in human primary T cells, OFP-positive cells by flow cytometry; assay type: cell-based; conditions: 30 μM in culture medium after electroporation, 48 hours
Procedure: Human peripheral blood mononuclear cells (PBMCs) were isolated from peripheral blood using Ficoll-Paque PLUS density gradient according to manufacturer's instructions. The human primary T cells were then isolated using DYNABEADS™ UNTOUCHED™ Human T Cells Kit and expanded using OPTMIZER™ CTS™ T-Cell Expansion SFM supplemented with 200 IU/mL of IL-2. The activation and expansion of human T cells were carried out using DYNABEADS™ Human T-Expander CD3/CD28 kit. On day 3 of activation, T cells were harvested for transfection.
For transfection of primary T cells, 1×10^5 cells were used per NEON® electroporation with voltage set at 1700V, pulse width set at 20 ms, and the number of pulses set at 1, respectively. To evaluate the effects of chemical modification on HDR efficiency, phosphorothioate or amine-modified nucleotides were added at specific positions of the oligonucleotides during chemical synthesis. The resulting modified oligonucleotides were then used to amplify the donor DNA. […] Cells were analyzed at 48 hours post transfection.
Linear ds- or ss-DNA donor could be degraded in vivo by exonucleases. […] At 48 hours post transfection, the percentages of OFP-positive cells were determined by flow cytometric analysis. […]
The disruption of NHEJ repair pathway is known to improve HDR efficiency. […] At 48 hours post transfection, we analyzed the cells by flow cytometry.

CCN1CCN(CC(=O)Nc2ccc(-c3cccc4c(=O)cc(N5CCOCC5)oc34)c3sc4ccccc4c23)CC1 [Ku-0060648, 4-Ethyl-N-[4-[2-(4-morpholinyl)-4-oxo-4H-1-benzopyran-8-yl]-1-dibenzothienyl]-1-piperazineacetamide]
knock-in efficiency (β-actin in Jurkat): increased knock-in efficiency | knock-in efficiency (Q3) (β-actin): increased knock-in efficiency | knock-in efficiency (β-actin in THP-1): increased knock-in efficiency | knock-out efficiency (Q3 and Q4) [1]: without affecting knock-out efficiency | knock-in efficiency (β-actin in NK-92): increased knock-in efficiency

O=c1cc(N2CCOCC2)oc2c1ccc1ccccc12 [Nu7026, 2-(4-Morpholinyl)-4H-naphthol[1,2-b]pyran-4-one]
increase of the percentage of OFP-positive cells ([2]; amine-modified donor DNA): ~2 fold | increase of the percentage of OFP-positive cells ([2]; unmodified donor DNA): approximately 5 fold
